{
  "source": "the METLIN SMRT retention time set (Domingo-Almenara et al. 2019)",
  "data": [
    {"assay": "gradient 5% acetonitrile 3 min, to 50% in 2 min, to 85% in 15 min, held 3 min, 100 µL/min", "conditions": "column: Zorbax Extend-C18 2.1 x 50 mm; eluents: water / acetonitrile, 0.1% formic acid", "in_short": "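Mixtures of ~100 pure standards were chromatographed on a Zorbax Extend-C18 column (2.1 × 50 mm, 1.8 μm) at 100 μL/min using water and acetonitrile, each with 0.1% formic acid. Detection used a quadrupole time-of-flight mass spectrometer in positive and negative ionization mode, and data collection spanned 3 months. Retention time was obtained from adduct peaks picked computationally and each checked manually.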", "units": {"RP-LC retention time": "s"}, "values": [
      {"molecule": "CCc1ccc(NC(=O)N(C)CCc2noc(COc3ccccc3)n2)cc1", "RP-LC retention time": 962},
      {"molecule": "COc1ccc(C2Cn3cnc(C(=O)N4CCC(C(=O)NCc5ccco5)CC4)c3CO2)cc1", "note": "(stereo not given)", "RP-LC retention time": 698},
      {"molecule": "Cc1cnc(C(=O)N2CCC(N3CC(OCC4CC4)C34CCOCC4)CC2)cn1", "note": "(stereo not given)", "RP-LC retention time": 586},
      {"molecule": "CCCCS(=O)(=O)N1CCCC(c2nnc(C)s2)C1", "note": "(stereo not given)", "RP-LC retention time": 689},
      {"molecule": "CCCCn1cc(S(=O)(=O)NCc2ccccn2)c2cccnc21", "RP-LC retention time": 671},
      {"molecule": "N#Cc1cccc(C(=O)N2CCc3cc(-c4ccno4)ccc32)c1", "RP-LC retention time": 724},
      {"molecule": "CCN(CC)c1nc(C(=O)N2CCN(C(C)C)CC2)nc2nc(C)cc(C)c12", "RP-LC retention time": 543},
      {"molecule": "CC1(C)CC(=O)C2=C(C1)N(CC1CCCO1)C(=O)C2(NC(=O)c1ccc(F)cc1)C(F)(F)F", "note": "(stereo not given)", "RP-LC retention time": 929},
      {"molecule": "CC(=O)c1cccc(NC(=O)Cn2cncc(C)c2=O)c1", "RP-LC retention time": 598},
      {"molecule": "CN(C)C(=O)Cn1c(C(F)(F)F)nc2cc3c(cc21)OCCO3", "RP-LC retention time": 694},
      {"molecule": "Cc1cc2c(N3CCCC(C(=O)N4CCN(c5ccc(Cl)cc5)CC4)C3)nccc2s1", "note": "(stereo not given)", "RP-LC retention time": 799},
      {"molecule": "O=C(NCCc1csc(-c2ccccc2)n1)C1CCN(S(=O)(=O)c2ccc(Cl)cc2)CC1", "RP-LC retention time": 984},
      {"molecule": "O=C(Cc1cccc(F)c1)Nc1nnc(C2CC(=O)N(c3ccc(Cl)cc3)C2)o1", "note": "(stereo not given)", "RP-LC retention time": 800},
      {"molecule": "Cc1cc(N2CCCC2)n2nc(CN3CCN(CC(C)C)CC3)nc2n1", "RP-LC retention time": 549},
      {"molecule": "COCc1noc([C@@H]2CC(F)(F)CN2C(=O)C2CCCC2)n1", "RP-LC retention time": 810},
      {"molecule": "CCNC(=O)N1CCc2c(c(-c3nc(-c4ccc(F)cc4)no3)nn2C)C1", "RP-LC retention time": 788},
      {"molecule": "Cc1cccc(NC(=O)CN2c3ccccc3NC3=C(C(=O)CCC3)C2c2ccco2)c1C", "note": "(stereo not given)", "RP-LC retention time": 851},
      {"molecule": "CN1CCN(S(=O)(=O)c2ccc(Cl)c(-c3nnc(-c4ccccc4)o3)c2)CC1", "RP-LC retention time": 681},
      {"molecule": "COCC(=O)Nc1cc(=O)n(C)c(=O)n1C", "RP-LC retention time": 552},
      {"molecule": "CCc1ccc(S(=O)(=O)N2CCN(CCc3cn(C)c4ncccc34)CC2)cc1", "RP-LC retention time": 668},
      {"molecule": "Cn1nc(C(=O)N2CCCC(C(=O)NC3CC3)C2)c2c1CCN(C(=O)COc1ccccc1)C2", "note": "(stereo not given)", "RP-LC retention time": 644},
      {"molecule": "Cc1ccc(CNc2nnc(-c3nnc(C)o3)c3ccccc23)cc1", "RP-LC retention time": 830},
      {"molecule": "CCOc1ccc(NC(=O)c2cc(C)n3nc(-c4ccco4)cc3n2)cc1", "RP-LC retention time": 1130},
      {"molecule": "O=C1CC2(CCCC2)CC(=O)N1CCNCC1COc2ccccc2O1", "note": "(stereo not given)", "RP-LC retention time": 747},
      {"molecule": "Cc1nc(-c2ccccc2)sc1C(=O)Nc1nc(-c2ccccc2Cl)cs1", "RP-LC retention time": 1310},
      {"molecule": "Cc1cc(C)c2[nH]c3c(c(=O)c2c1)CN(CC(=O)Nc1cc(F)cc(F)c1)CC3", "RP-LC retention time": 673},
      {"molecule": "COc1ccccc1-c1cc(C(=O)N2CCN(c3ncccn3)CC2)c2ccccc2n1", "RP-LC retention time": 803},
      {"molecule": "CN(C)c1ccc(CN2C(=O)CN(S(C)(=O)=O)CC2(C)C(=O)NCc2ccc(Cl)cc2)cc1", "note": "(stereo not given)", "RP-LC retention time": 662},
      {"molecule": "Cc1nn(-c2nc3ccccc3[nH]2)c2c1C(=O)CC(c1ccccc1)C2", "note": "(stereo not given)", "RP-LC retention time": 990},
      {"molecule": "O=C(N[C@H]1C[C@@H]2C[C@H]1CN2S(=O)(=O)c1ccc2c(c1)OCCO2)c1ccccc1", "RP-LC retention time": 803},
      {"molecule": "Cc1ccccc1CNC(=O)CN1CCN(Cc2ccccc2)C1=O", "RP-LC retention time": 806},
      {"molecule": "Cc1ccc(-c2noc(Cn3ccn(-c4c(C)cccc4C)c(=O)c3=O)n2)cc1", "RP-LC retention time": 925},
      {"molecule": "COc1nc2ccccc2nc1N1CCCC(C(=O)Nc2cccc(Br)c2)C1", "note": "(stereo not given)", "RP-LC retention time": 1300},
      {"molecule": "Cn1cc(-c2ccncc2)cc1C(=O)NCc1ccccc1Br", "RP-LC retention time": 655},
      {"molecule": "Cc1cc2c(cc1S(=O)(=O)N1CCCC1C(=O)Nc1ccc3c(c1)OCO3)OCC(=O)N2", "note": "(stereo not given)", "RP-LC retention time": 720},
      {"molecule": "CCC(=O)NCc1nc2c(n1C)CN(S(=O)(=O)c1cccc(F)c1)CC2", "RP-LC retention time": 558},
      {"molecule": "CCOc1ccc(NC(=O)NCC(c2cccnc2)c2cn(C)c3ccccc23)cc1", "note": "(stereo not given)", "RP-LC retention time": 703},
      {"molecule": "COCCN1C(=O)c2cccn2CC1CNC(=O)c1sccc1C", "note": "(stereo not given)", "RP-LC retention time": 689},
      {"molecule": "CCSc1nc2ccc(NS(=O)(=O)c3cc(F)cc(F)c3)cc2s1", "RP-LC retention time": 1050},
      {"molecule": "Cc1ccc(NC(=O)N2CCC3(CC2)N=C(c2ccccc2)C(=O)N3)cc1C", "RP-LC retention time": 824},
      {"molecule": "O=C(Cc1cccc(F)c1)NC1CCN(c2cc(-c3cccs3)[nH]n2)C1", "note": "(stereo not given)", "RP-LC retention time": 710},
      {"molecule": "CN(Cc1ccoc1)C(=O)NC1CCCC1", "RP-LC retention time": 763},
      {"molecule": "CCOc1ncccc1CNS(=O)(=O)c1cccnc1", "RP-LC retention time": 661},
      {"molecule": "CCOc1ccc(NC(=O)Cn2ncc3c(N4CCN(c5ccccn5)CC4)ncnc32)cc1", "RP-LC retention time": 624},
      {"molecule": "O=C(Nc1nnc(-c2cccs2)o1)c1cc(Cl)ccc1Cl", "RP-LC retention time": 764}
    ]}
  ]
}
